Source: PubChem BioAssay (NCI)
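Briefly, cells in 96-well plates were exposed to five compound concentrations for 48 h, and endpoints were estimated by linear interpolation. GI50 is the concentration that inhibits growth by half. TGI marks complete inhibition of growth.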

Tests used:
Test in all cases: NCI-60 cell line screen, 48 h
SK-MEL-28 melanoma = tested on: SK-MEL-28 melanoma
SF-295 CNS = tested on: SF-295 CNS
HCC-2998 colon = tested on: HCC-2998 colon
UACC-62 melanoma = tested on: UACC-62 melanoma
PC-3 prostate = tested on: PC-3 prostate
RXF 393 renal = tested on: RXF 393 renal
NCI/ADR-RES ovarian = tested on: NCI/ADR-RES ovarian
RPMI-8226 leukemia = tested on: RPMI-8226 leukemia
SK-MEL-5 melanoma = tested on: SK-MEL-5 melanoma
BT-549 breast = tested on: BT-549 breast
OVCAR-3 ovarian = tested on: OVCAR-3 ovarian
SN12C renal = tested on: SN12C renal
ACHN renal = tested on: ACHN renal
SF-268 CNS = tested on: SF-268 CNS
COLO 205 colon = tested on: COLO 205 colon
NCI-H23 lung = tested on: NCI-H23 lung
HT29 colon = tested on: HT29 colon
CAKI-1 renal = tested on: CAKI-1 renal
M14 melanoma = tested on: M14 melanoma
HL-60(TB) leukemia = tested on: HL-60(TB) leukemia
NCI-H460 lung = tested on: NCI-H460 lung
UACC-257 melanoma = tested on: UACC-257 melanoma
HOP-92 NSCLC = tested on: HOP-92 NSCLC
OVCAR-5 ovarian = tested on: OVCAR-5 ovarian
OVCAR-4 ovarian = tested on: OVCAR-4 ovarian
786-0 renal = tested on: 786-0 renal
EKVX NSCLC = tested on: EKVX NSCLC
SNB-75 CNS = tested on: SNB-75 CNS
U251 CNS = tested on: U251 CNS
SNB-19 CNS = tested on: SNB-19 CNS
HOP-62 NSCLC = tested on: HOP-62 NSCLC
IGROV1 ovarian = tested on: IGROV1 ovarian
UO-31 renal = tested on: UO-31 renal
SW-620 colon = tested on: SW-620 colon
SK-OV-3 ovarian = tested on: SK-OV-3 ovarian
MDA-MB-435 = tested on: MDA-MB-435
NCI-H522 lung = tested on: NCI-H522 lung
A549 NSCLC = tested on: A549 NSCLC
LOX IMVI melanoma = tested on: LOX IMVI melanoma
A498 renal = tested on: A498 renal
K-562 leukemia = tested on: K-562 leukemia
MDA-MB-231 breast = tested on: MDA-MB-231 breast
CCRF-CEM leukemia = tested on: CCRF-CEM leukemia
HCT-116 colon = tested on: HCT-116 colon
SK-MEL-2 melanoma = tested on: SK-MEL-2 melanoma
NCI-H226 lung = tested on: NCI-H226 lung
SR leukemia = tested on: SR leukemia
SF-539 CNS = tested on: SF-539 CNS
T-47D breast = tested on: T-47D breast
HS 578T breast = tested on: HS 578T breast
MOLT-4 leukemia = tested on: MOLT-4 leukemia
MALME-3M melanoma = tested on: MALME-3M melanoma
OVCAR-8 ovarian = tested on: OVCAR-8 ovarian
KM12 colon = tested on: KM12 colon
DU-145 prostate = tested on: DU-145 prostate
TK-10 renal = tested on: TK-10 renal
HCT-15 colon = tested on: HCT-15 colon
MCF7 breast = tested on: MCF7 breast

COc1ccc(C(O)c2cc3c(N)c(C(=O)Nc4cccc(Br)c4C)sc3nc2C)cc1 (stereo not given)
GI50 (SK-MEL-28 melanoma): 5200 nM
TGI (SK-MEL-28 melanoma): > 33300 nM
GI50 (SF-295 CNS): 133 nM
TGI (SF-295 CNS): 6140 nM
GI50 (HCC-2998 colon): 426 nM
TGI (HCC-2998 colon): 2840 nM
GI50 (UACC-62 melanoma): 141 nM
TGI (UACC-62 melanoma): > 31000 nM
GI50 (PC-3 prostate): 618 nM
TGI (PC-3 prostate): 18400 nM
GI50 (RXF 393 renal): 94.4 nM
TGI (RXF 393 renal): 2220 nM
GI50 (NCI/ADR-RES ovarian): 179 nM
TGI (NCI/ADR-RES ovarian): 2990 nM
GI50 (RPMI-8226 leukemia): 167 nM
TGI (RPMI-8226 leukemia): > 33300 nM
GI50 (SK-MEL-5 melanoma): 143 nM
TGI (SK-MEL-5 melanoma): 922 nM
GI50 (BT-549 breast): 479 nM
TGI (BT-549 breast): 15400 nM
GI50 (OVCAR-3 ovarian): 103 nM
TGI (OVCAR-3 ovarian): 1080 nM
GI50 (SN12C renal): 246 nM
TGI (SN12C renal): > 33300 nM
GI50 (ACHN renal): 216 nM
TGI (ACHN renal): > 26400 nM
GI50 (SF-268 CNS): 405 nM
TGI (SF-268 CNS): > 27800 nM
GI50 (COLO 205 colon): 1040 nM
TGI (COLO 205 colon): > 11000 nM
GI50 (NCI-H23 lung): 276 nM
TGI (NCI-H23 lung): > 33300 nM
GI50 (HT29 colon): 120 nM
TGI (HT29 colon): 5770 nM
GI50 (CAKI-1 renal): 151 nM
TGI (CAKI-1 renal): 18100 nM
GI50 (M14 melanoma): 109 nM
TGI (M14 melanoma): > 24000 nM
GI50 (HL-60(TB) leukemia): 104 nM
TGI (HL-60(TB) leukemia): 2340 nM
GI50 (NCI-H460 lung): 121 nM
TGI (NCI-H460 lung): 1650 nM
GI50 (UACC-257 melanoma): 307 nM
TGI (UACC-257 melanoma): > 33300 nM
GI50 (HOP-92 NSCLC): 261 nM
TGI (HOP-92 NSCLC): 18000 nM
GI50 (OVCAR-5 ovarian): 666 nM
TGI (OVCAR-5 ovarian): > 25600 nM
GI50 (OVCAR-4 ovarian): 2810 nM
TGI (OVCAR-4 ovarian): > 33300 nM
GI50 (786-0 renal): 254 nM
TGI (786-0 renal): > 33300 nM
GI50 (EKVX NSCLC): 259 nM
TGI (EKVX NSCLC): > 33300 nM
GI50 (SNB-75 CNS): 81.6 nM
TGI (SNB-75 CNS): 11200 nM
GI50 (U251 CNS): 164 nM
TGI (U251 CNS): 8610 nM
GI50 (SNB-19 CNS): 211 nM
TGI (SNB-19 CNS): > 33300 nM
GI50 (HOP-62 NSCLC): 287 nM
TGI (HOP-62 NSCLC): > 30200 nM
GI50 (IGROV1 ovarian): 375 nM
TGI (IGROV1 ovarian): 18800 nM
GI50 (UO-31 renal): 261 nM
TGI (UO-31 renal): > 33300 nM
GI50 (SW-620 colon): 124 nM
TGI (SW-620 colon): > 33300 nM
GI50 (SK-OV-3 ovarian): 251 nM
TGI (SK-OV-3 ovarian): > 33300 nM
GI50 (MDA-MB-435): 66.5 nM
TGI (MDA-MB-435): 149 nM
GI50 (NCI-H522 lung): 157 nM
GI50 (A549 NSCLC): 221 nM
TGI (A549 NSCLC): > 16800 nM
GI50 (LOX IMVI melanoma): 187 nM
TGI (LOX IMVI melanoma): 12400 nM
GI50 (A498 renal): 82 nM
TGI (A498 renal): 1280 nM
GI50 (K-562 leukemia): 140 nM
TGI (K-562 leukemia): > 33300 nM
GI50 (MDA-MB-231 breast): 462 nM
TGI (MDA-MB-231 breast): 8960 nM
GI50 (CCRF-CEM leukemia): 139 nM
TGI (CCRF-CEM leukemia): > 33300 nM
GI50 (HCT-116 colon): 141 nM
TGI (HCT-116 colon): 7460 nM
GI50 (SK-MEL-2 melanoma): 1170 nM
TGI (SK-MEL-2 melanoma): > 33300 nM
GI50 (NCI-H226 lung): 989 nM
TGI (NCI-H226 lung): 17900 nM
GI50 (SR leukemia): 125 nM
TGI (SR leukemia): > 33300 nM
GI50 (SF-539 CNS): 131 nM
TGI (SF-539 CNS): 2880 nM
GI50 (T-47D breast): 346 nM
TGI (T-47D breast): > 33300 nM
GI50 (HS 578T breast): 106 nM
TGI (HS 578T breast): 3750 nM
GI50 (MOLT-4 leukemia): 177 nM
TGI (MOLT-4 leukemia): > 33300 nM
GI50 (MALME-3M melanoma): 199 nM
TGI (MALME-3M melanoma): > 33300 nM
GI50 (OVCAR-8 ovarian): 225 nM
TGI (OVCAR-8 ovarian): > 23000 nM
GI50 (KM12 colon): 152 nM
TGI (KM12 colon): 11700 nM
GI50 (DU-145 prostate): 135 nM
TGI (DU-145 prostate): 4540 nM
GI50 (TK-10 renal): 4210 nM
TGI (TK-10 renal): > 24400 nM
GI50 (HCT-15 colon): 138 nM
TGI (HCT-15 colon): > 14400 nM
GI50 (MCF7 breast): 116 nM
TGI (MCF7 breast): > 33300 nM
